Reference: patent US20250161253A1, “NUTRITIONAL PRODUCT” (VITAFLO (INTERNATIONAL) LTD, priority 2012, published 2025)

Experiments:
SH-SY5Y cells [1] = test: citrate synthase activity in SH-SY5Y cells (marker of mitochondrial enrichment); type: cell-based, human; conditions: 6 days; for effect on citrate synthase activity compared to control cells (in words): 50-300 μM
Description: Mitochondrial enrichment was estimated by evaluation of citrate synthase activity (corrected for total cellular protein content). This enzyme is localised at the mitochondria, comprises part of the TCA cycle and is commonly used as a marker of mitochondrial enrichment. A human neuroblastoma cell line (SH-SY5Y) was utilised throughout this study, except where stated. In brief, cells were exposed to a range (50-300 μM, dissolved in 0.5% DMSO) of either octanoic or decanoic acid concentrations. After 6 days, the cells were harvested and citrate synthase activity was determined. Activity was expressed as nmol/min/mg of cellular protein.

[2] = test system: primary human fibroblasts; test: citrate synthase activity in primary human fibroblasts; type: cell-based; conditions: 250 μM, 6 days
Description: Finally, the effect of decanoic acid was validated in an independent cell line. Primary cultures of human fibroblasts were exposed to decanoic acid at a concentration of 250 μM for 6 days. Following the incubation, citrate synthase activity was again assessed.

SH-SY5Y cells [3] = test: electron microscopy analysis of mitochondrial density and morphology in SH-SY5Y cells; type: cell-based, human; conditions: 250 μM, p<0.002
Description: Additionally, SH-SY5Y cells were prepared for electron microscopy (EM) analysis to assess mitochondrial density and morphology following treatment with decanoic acid.

SH-SY5Y cells [4] = test: Complex I activity in SH-SY5Y cells; type: cell-based, human; conditions: 250 μM, 6 days
Description: In order to gain further independent insight into mitochondrial function, the activity of the respiratory chain enzyme, Complex I, was also evaluated. In a second experiment, cells were exposed to decanoic acid (250 μM, dissolved in 0.5% DMSO) for 6 days. The cells were subsequently harvested, and the activity of Complex I was determined. Each experiment was repeated 5 times, and the activity was expressed as nmol/min/mg of cellular protein.

SMILES	increase in citrate synthase activity compared to control cells (SH-SY5Y cells [1]; 250 μM, maximum, p<0.001) [%]	citrate synthase activity (SH-SY5Y cells [1]; 250 μM, n = 8, control 105 ± 5) [nmol/min/mg cell protein]	effect on citrate synthase activity compared to control cells (in words) (SH-SY5Y cells [1])	increase in citrate synthase activity [2] [%]	number of mitochondria per cell (EM) (SH-SY5Y cells [3])	Complex I activity with respect to control (SH-SY5Y cells [4]; p<0.002)	Complex I activity normalised against citrate synthase activity (SH-SY5Y cells [4]; p<0.05)
CCCCCCCCCC(=O)O [Decanoic Acid, decanoic acid]	30	137 ± 5	dose dependent	45	significant (p<0.002) increase	significant (p<0.002) increase	significant (p<0.05) increase
CCCCCCCC(=O)O [Octanoic acid, octanoic acid, reference compound]			no effect				
